In publication PMC6259277, “Synthesis, Gastroprotective Effect and Cytotoxicity of New Amino Acid Diterpene Monoamides and Diamides” (Molecules, 2010):

Tests used:
[1] = tested on: ethanol/HCl-induced gastric lesions; test: Ethanol/HCl-induced gastric lesion (ulcer) model in mice; format: in vivo; details: single oral dose 25 mg/kg; for inhibition in vivo at 25 mg/kg: Mus musculus, po, compared with untreated controls, read-out: Gastroprotective effect: % Lesion reduction; for Gastroprotective effect: Lesion index: mean ± SD, sum of lesion lengths
Description: The gastroprotective activity of the compounds was determined in the ethanol/HCl-induced lesion model in mice. The purity of the tested compounds was higher than 95% by NMR analysis. Male Swiss albino mice weighing 30 ± 3 g were used. Animals were fed on certified Champion diet with free access to water under standard conditions of 12 h dark-light period, 50% relative humidity and 22 °C room temperature. Mice were randomly distributed into groups of eight animals each and fasted for 24 h with free access to water previous to the experiment. Fasting prior to ulcerogenic assays was used because 0.2 mL of the reference antisecretory drug lansoprazole (2-[[[3-methyl-4-(2,2,2-trifluroethoxy)-2-pyridyl]methyl]sulfinyl]benzimidazole) and the amides were administered orally. To keep the animal number to a minimum, dose-response studies were performed with the leucine derivatives 13 and 18 to set the conditions for single-dose comparison of gastroprotective effect. For the selected parent compounds, three doses were used: 25, 50 and 100 mg/kg. Fifty min after oral administration of the compounds, lansoprazole (20 mg/kg) or the vehicle (12% Tween 80, 10 mL/kg), all groups were orally treated with 0.2 mL of a solution containing 60% ethanol/0.3 M HCl (ethanol/HCl) for gastric lesion induction. Animals were sacrificed by cervical dislocation 1 h after the administration of ethanol/HCl, and the stomachs excised and inflated by injection of 5% formalin (1 mL). The ulcerated stomachs were fixed in 5% formalin for 30 min and opened along the greater curvature. The length (mm) of each lesion was measured, and the lesion index expressed as the sum of the length of all lesions. For comparison purposes, the products 1-5, 7-12, 14-16, 19 and 20 were assessed at a single oral dose of 25 mg/kg. The protocols were approved by the Universidad de Talca Institutional Animal Care and Use Committee, which follows the recommendations of the Canadian Council on Animal Care. Tween 80 and lansoprazole (> 98% purity by HPLC) were purchased from Sigma Chemical Co.
Results were expressed as the mean ± SD. In all experiments, statistical differences between several treatments and their respective control were determined by one-way analysis of variance (ANOVA) and when the F value was significant, post hoc differences were determined by the Dunnett's multiple comparison test. The level of significance was set at P < 0.05. All statistical analyses were performed using the software Statistica 5.1 (StatSoft, Inc.) and Statistical Package S-Plus 2000.

[2] = Cytotoxicity, neutral red uptake assay, Hep G2; format: cell-based; details: human, Hep G2 cells, confluent monolayers, confluent cultures, 0-1000 µM, mean ± SD
Description: (§1) Human normal lung fibroblasts MRC-5 (ATCC CCL-171) and Hep G2 cells (ATCC HB-8065) were grown as monolayers in minimum essential Eagle´s medium (MEM), with Earle's salts, 2.0 mM L-glutamine (Sigma Chemical Co.) and 2.0 g/L sodium bicarbonate (Sigma Chemical Co.), supplemented with 10% heat-inactivated fetal bovine serum (FBS), 100 IU/mL penicillin and 100 µg/mL streptomycin in a humidified incubator with 5% CO2 in air at 37 °C. Cell passage was maintained between 10 and 16 for MRC-5 and between 79 and 82 for Hep G2 cells. The medium was changed every 2 days. Culture media, antibiotics and FBS were obtained from Invitrogen Corp.
(§2) Confluent cultures of MRC-5, AGS and Hep G2 cells were treated with medium containing the compounds at concentrations ranging from 0 up to 1000 µM. The products were first dissolved in DMSO and then in the corresponding culture medium supplemented with 2% FBS. The final content of DMSO in the test medium and controls was 1%. Cells were exposed for 24 h to the assayed compounds. Untreated cells served as controls. Each concentration was tested in quadruplicate together with the control and repeated three times in separate experiments. At the end of the incubation, the neutral red uptake (NRU) assay was carried out to determine cell viability. To calculate the IC50 values (concentration that produces a 50% inhibitory effect on the evaluated parameter) the results were transformed to percentage of controls and the IC50 value was graphically obtained from the dose-response curves.

[3] = Cytotoxicity, neutral red uptake assay, AGS; format: cell-based; details: human, AGS gastric adenocarcinoma cells, confluent monolayers, confluent cultures, 0-1000 µM, mean ± SD
Description: as §2, with “Human gastric adenocarcinoma cells AGS (ATCC CRL-1739) were grown as monolayers in Ham F-12 medium containing 1.0 mM L-glutamine and 1.5 g/L sodium bicarbonate, supplemented with 10% heat-inactivated FBS, 100 IU/mL penicillin and 100 µg/mL streptomycin in a humidified incubator with 5% CO2 in air at 37 °C. The cell passage was maintained between 42 and 48. The medium was changed every 2 days. Confluent” for “Confluent”

[4] = Cytotoxicity, neutral red uptake assay, MRC-5; format: cell-based; details: human, MRC-5 normal lung fibroblasts, confluent monolayers, confluent cultures, 0-1000 µM, mean ± SD
Description: as §1, §2

SMILES	inhibition in vivo at 25 mg/kg [1] [%]	Gastroprotective effect: Lesion index [1] [mm]	IC50 at 24 h [2] [µM]	IC50 at 24 h [3] [µM]	IC50 at 24 h [4] [µM]
COC(=O)[C@@H]1CCCN1C(=O)[C@@]1(C)CCC[C@]2(C)C(CC[C@@H](C)CC(=O)O)=C(C)CCC12 (stereo partly shown) [Compound 7, Labd-8(9)-en-15,19-dioic acid, 19-prolyl methyl ester amide]	53.9	21.2 ± 9.5	364 ± 15	266 ± 16	459 ± 32
COC(=O)[C@H](CC(C)C)NC(=O)C[C@H](C)CCC1=C(C)CCC2[C@@](C)(C(=O)O)CCC[C@]12C (stereo partly shown) [Compound 3, Labd-8(9)-en-15,19-dioic acid, 15-leucyl methyl ester amide]	72.6	12.6 ± 6.8	806 ± 32	445 ± 27	> 1000
C=C1CCC2[C@](C)(CCC[C@]2(C)C(=O)O)[C@H]1CC[C@@H](C)CC(=O)N1CCC[C@H]1C(=O)OC (stereo partly shown) [Compound 14, Labd-8(17)-en-15,19-dioic acid, 15-prolyl methyl ester amide]	59.8	18.5 ± 11.8	894 ± 56	297 ± 14	> 1000
COC(=O)[C@H](Cc1c[nH]c2ccccc12)NC(=O)C[C@H](C)CCC1=C(C)CCC2[C@@](C)(C(=O)O)CCC[C@]12C (stereo partly shown) [Compound 5, Labd-8(9)-en-15,19-dioic acid, 15-tryptophanyl methyl ester amide]	25.4	34.3 ±12.0	291 ± 11	149 ± 7	260 ± 15
C=C1CCC2[C@](C)(CCC[C@]2(C)C(=O)O)[C@H]1CC[C@@H](C)CC(=O)N[C@H](C(=O)OC)C(C)C (stereo partly shown) [Compound 12, Labd-8(17)-en-15,19-dioic acid, 15-valyl methyl ester amide]	66.5	15.4 ± 8.8	673 ± 34	309 ± 18	380 ± 19
